Measurements taken from the supplement of paper PMC13207355.

Legend:
Conditions in all cases: exposure time: 72 h
E13 [1] = patient-derived glioblastoma stem cells of classical subtype; assay: surviving fraction (nuclei count normalised to DMSO); higher = more cells surviving (less toxic)
E21 [2] = patient-derived glioblastoma stem cells of mesenchymal subtype; assay: as above
E28 [3] = patient-derived glioblastoma stem cells of classical subtype; assay: as above
E31 [4] = patient-derived glioblastoma stem cells of proneural subtype; assay: as above
E34 [5] = patient-derived glioblastoma stem cells of proneural subtype; assay: as above
E57 [6] = patient-derived glioblastoma stem cells of mesenchymal subtype; assay: as above
FT3469 [7] = normal neural stem cell line; assay: as above
E13 [8] = assay: phenotypic distance (Euclidean, principal components) from DMSO controls (arbitrary units); higher = stronger morphological change
E21 [9] = assay: as above
E28 [10] = assay: as above
E31 [11] = assay: as above
E34 [12] = assay: as above
E57 [13] = assay: as above
FT3469 [14] = assay: as above
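Wherever phenotypic distance (Euclidean, principal components) from DMSO controls is given: cell Painting imaging in 384-well plates, CellProfiler features reduced to at least 20 principal components, Euclidean distance versus same-plate DMSO vehicle wells (0.1% v/v), median over six images per well.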
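Wherever surviving fraction (nuclei count normalised to DMSO) is given: nuclei counted by high-content imaging of Hoechst-stained cells in laminin-coated 384-well plates, relative to 0.1% DMSO vehicle wells, with staurosporine as cell-death control.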

CC[n+]1c(/C=C/C=C2/N(C)c3ccccc3C2(C)C)sc2ccccc21
surviving fraction (E13 [1]; 4.1 nM): 0.616
surviving fraction (E13 [1]; 12.3 nM): 0.567
surviving fraction (E13 [1]; 37 nM): 0.47
surviving fraction (E13 [1]; 111.1 nM): 0.362
surviving fraction (E13 [1]; 333.3 nM): 0.403
surviving fraction (E13 [1]; 1000 nM): 0.361
surviving fraction (E13 [1]; 3000 nM): 0.381
surviving fraction (E21 [2]; 4.1 nM): 0.792
surviving fraction (E21 [2]; 12.3 nM): 0.825
surviving fraction (E21 [2]; 37 nM): 0.652
surviving fraction (E21 [2]; 111.1 nM): 0.54
surviving fraction (E21 [2]; 333.3 nM): 0.471
surviving fraction (E21 [2]; 1000 nM): 0.462
surviving fraction (E21 [2]; 3000 nM): 0.445
surviving fraction (E28 [3]; 4.1 nM): 0.916
surviving fraction (E28 [3]; 12.3 nM): 0.86
surviving fraction (E28 [3]; 37 nM): 0.707
surviving fraction (E28 [3]; 111.1 nM): 0.596
surviving fraction (E28 [3]; 333.3 nM): 0.429
surviving fraction (E28 [3]; 1000 nM): 0.42
surviving fraction (E28 [3]; 3000 nM): 0.307
surviving fraction (E31 [4]; 4.1 nM): 1.03
surviving fraction (E31 [4]; 12.3 nM): 0.703
surviving fraction (E31 [4]; 37 nM): 0.714
surviving fraction (E31 [4]; 111.1 nM): 0.446
surviving fraction (E31 [4]; 333.3 nM): 0.21
surviving fraction (E31 [4]; 1000 nM): 0.229
surviving fraction (E31 [4]; 3000 nM): 0.277
surviving fraction (E34 [5]; 4.1 nM): 0.967
surviving fraction (E34 [5]; 12.3 nM): 0.902
surviving fraction (E34 [5]; 37 nM): 0.834
surviving fraction (E34 [5]; 111.1 nM): 0.572
surviving fraction (E34 [5]; 333.3 nM): 0.552
surviving fraction (E34 [5]; 1000 nM): 0.591
surviving fraction (E34 [5]; 3000 nM): 0.516
surviving fraction (E57 [6]; 4.1 nM): 0.878
surviving fraction (E57 [6]; 12.3 nM): 0.881
surviving fraction (E57 [6]; 37 nM): 0.793
surviving fraction (E57 [6]; 111.1 nM): 0.614
surviving fraction (E57 [6]; 333.3 nM): 0.337
surviving fraction (E57 [6]; 1000 nM): 0.324
surviving fraction (E57 [6]; 3000 nM): 0.294
surviving fraction (FT3469 [7]; 4.1 nM): 0.855
surviving fraction (FT3469 [7]; 12.3 nM): 0.668
surviving fraction (FT3469 [7]; 37 nM): 0.696
surviving fraction (FT3469 [7]; 111.1 nM): 0.627
surviving fraction (FT3469 [7]; 333.3 nM): 0.645
surviving fraction (FT3469 [7]; 1000 nM): 0.622
surviving fraction (FT3469 [7]; 3000 nM): 0.578
phenotypic distance (E13 [8]; 4.1 nM): 1.39
phenotypic distance (E13 [8]; 12.3 nM): 1.38
phenotypic distance (E13 [8]; 37 nM): 2.78
phenotypic distance (E13 [8]; 111.1 nM): 3.54
phenotypic distance (E13 [8]; 333.3 nM): 3.71
phenotypic distance (E13 [8]; 1000 nM): 3.71
phenotypic distance (E13 [8]; 3000 nM): 3.71
phenotypic distance (E21 [9]; 4.1 nM): 1.08
phenotypic distance (E21 [9]; 12.3 nM): 1.6
phenotypic distance (E21 [9]; 37 nM): 2.31
phenotypic distance (E21 [9]; 111.1 nM): 3.28
phenotypic distance (E21 [9]; 333.3 nM): 3.93
phenotypic distance (E21 [9]; 1000 nM): 3.44
phenotypic distance (E21 [9]; 3000 nM): 2.74
phenotypic distance (E28 [10]; 4.1 nM): 0.748
phenotypic distance (E28 [10]; 12.3 nM): 0.775
phenotypic distance (E28 [10]; 37 nM): 1.34
phenotypic distance (E28 [10]; 111.1 nM): 1.61
phenotypic distance (E28 [10]; 333.3 nM): 3.13
phenotypic distance (E28 [10]; 1000 nM): 2.8
phenotypic distance (E28 [10]; 3000 nM): 5.04
phenotypic distance (E31 [11]; 4.1 nM): 2.01
phenotypic distance (E31 [11]; 12.3 nM): 1.15
phenotypic distance (E31 [11]; 37 nM): 1.51
phenotypic distance (E31 [11]; 111.1 nM): 1.16
phenotypic distance (E31 [11]; 333.3 nM): 3.28
phenotypic distance (E31 [11]; 1000 nM): 4.43
phenotypic distance (E31 [11]; 3000 nM): 3.86
phenotypic distance (E34 [12]; 4.1 nM): 1.1
phenotypic distance (E34 [12]; 12.3 nM): 1.65
phenotypic distance (E34 [12]; 37 nM): 1.13
phenotypic distance (E34 [12]; 111.1 nM): 2.37
phenotypic distance (E34 [12]; 333.3 nM): 2.3
phenotypic distance (E34 [12]; 1000 nM): 2.55
phenotypic distance (E34 [12]; 3000 nM): 3.35
phenotypic distance (E57 [13]; 4.1 nM): 1.08
phenotypic distance (E57 [13]; 12.3 nM): 0.887
phenotypic distance (E57 [13]; 37 nM): 1.53
phenotypic distance (E57 [13]; 111.1 nM): 2.52
phenotypic distance (E57 [13]; 333.3 nM): 6.37
phenotypic distance (E57 [13]; 1000 nM): 5.7
phenotypic distance (E57 [13]; 3000 nM): 7.93
phenotypic distance (FT3469 [14]; 4.1 nM): 1.31
phenotypic distance (FT3469 [14]; 12.3 nM): 1.56
phenotypic distance (FT3469 [14]; 37 nM): 1.69
phenotypic distance (FT3469 [14]; 111.1 nM): 1.86
phenotypic distance (FT3469 [14]; 333.3 nM): 1.62
phenotypic distance (FT3469 [14]; 1000 nM): 3.78
phenotypic distance (FT3469 [14]; 3000 nM): 3.43
